Results on one molecule are retold here after patent publication US6180653A, “Aminopyrazole derivatives” (Banyu Pharmaceutical Co., Ltd., priority 1996, dated 2001).

SMILES strings stand for the structures.

For the test, the target named is T1, human NPY Y5 receptor (Homo sapiens, UniProt Q15761).
T1 construct: expressed in transfected cells
T1 sequence (Q15761 1-445): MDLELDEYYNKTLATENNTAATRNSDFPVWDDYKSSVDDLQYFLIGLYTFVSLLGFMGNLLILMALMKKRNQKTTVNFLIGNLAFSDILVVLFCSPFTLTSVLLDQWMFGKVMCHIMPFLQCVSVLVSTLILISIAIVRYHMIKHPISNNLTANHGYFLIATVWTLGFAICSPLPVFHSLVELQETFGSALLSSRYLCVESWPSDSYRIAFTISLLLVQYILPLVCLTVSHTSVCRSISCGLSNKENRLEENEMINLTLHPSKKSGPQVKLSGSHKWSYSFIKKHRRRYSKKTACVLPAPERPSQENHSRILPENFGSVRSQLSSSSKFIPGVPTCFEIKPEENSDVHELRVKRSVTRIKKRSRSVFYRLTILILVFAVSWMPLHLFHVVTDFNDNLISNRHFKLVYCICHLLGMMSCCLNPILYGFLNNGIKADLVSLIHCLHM
As to the kind of experiment: test of inhibition of NPY binding ([125I] peptide YY binding to membranes of NPY Y5 receptor-expressing cells). The note with it: [125I] peptide YY 20,000 cpm, 25° C., 2 hours, pH 7.4; membranes of transfected COS-7, CHO or LM(tk-) cells; read-out: concentration needed to inhibit 50% of the specific binding to the peptide YY (IC50 value). The text has this:
cDNA Sequence encoding a human NPY Y5 receptor [International Publication WO 96/16542] was cloned into expression vectors pcDNA3, pRc/RSV (manufactured by Invitrogen) and pCI-neo (manufactured by Promega). Using the cationic lipid method [see Proceedings of the National Academy of Science of the United States of America, vol.84, p.7413 (1987)], host cells COS-7, CHO and LM(tk-) (American Type Culture Collection) were transfected with the thus prepared expression vectors to obtain cells in which the NPY Y5 receptor had been expressed.
Each of the membrane preparations thus prepared from the cells in which the NPY Y5 receptor had been expressed was incubated together with each compound to be tested and 20,000 cpm of [^125 I,] peptide YY (manufactured by Amersham) at 25° C. for 2 hours in an assay buffer solution (25 mM HEPES buffer, pH 7.4, containing 10 mM magnesium chloride, 1 mM phenylmethylsulfonyl fluoride and 0.1% bacitracin) and then, the reaction mixture was filtered through a glass filter GF/C. After washing with 50 mM Tris buffer, pH 7.4, containing 0.3% BSA, radioactivity on the glass filter was measured using a gamma counter. […]

`COc1ccc(-c2cc(NC(=O)Cc3ccc4ccccc4c3)[nH]n2)cc1OC` [Example 6]: the IC50 amounted to 8.3 nM.
